Experimental data: patent publication US9593305B2, “Differentiation of pluripotent stem cells” (Janssen Biotech, Inc., priority 2008, dated 2017)

System: H1 human embryonic stem cells
Test: Step-wise differentiation, RT-PCR of differentiation markers (Example 17, Table 15)
Assay type: cell-based
Experimental: Stock cultures of human embryonic stem cells (H1 human embryonic stem cell line) were maintained in an undifferentiated, pluripotent state on reduced growth factor […]™ (BD Biosciences; Cat #356231)-coated dishes in MEF conditioned medium supplemented with 8 ng/ml bFGF (PeproTech Inc.; Cat #100-18B) with passage on average every four days. Passage was performed by exposing cell cultures to a solution of 1 mg/ml dispase (Invitrogen; Cat #17105-041) for 5 to 7 minutes at 37° C. followed by rinsing the monolayer with MEF conditioned culture medium and gentle scraping to recover cell clusters. Clusters were centrifuged at low speed to collect a cell pellet and remove residual dispase. Cell clusters were split at a 1:3 or 1:4 ratio for routine maintenance culture or a 1:1 ratio for immediate assay. All human ES cell lines were maintained at passage numbers less than 50 and routinely evaluated for normal karyotype and absence of mycoplasma.
Cell clusters were evenly resuspended in MEF conditioned medium supplemented with 8 ng/ml bFGF and plated onto reduced growth factor […]™-coated 24-well, black wall culture plates (Arctic White; Cat #AWLS-303012) in volumes of 0.5 ml/well. Daily feeding was conducted by aspirating spent culture medium from each well and replacing with an equal volume of fresh medium. Plates were maintained at 37° C., 5% CO2 throughout assay.
The assay was initiated by aspirating the culture medium from each well and adding back an aliquot (0.5 ml) of test medium. Test conditions for the first step of differentiation were conducted over a three-day period, feeding daily by aspirating and replacing the medium from each well with fresh test medium. On the first day of assay, 100 ng/ml activin A (PeproTech; Cat #120-14) or 100 ng/ml GDF-8 (R&D Systems, Cat #788-G8) was added to respective assay wells where each growth factor was diluted into RPMI-1640 medium (Invitrogen; Cat #: 22400) with 2% Albumin Bovine Fraction V, Fatty Acid Free (FAF BSA) (MP Biomedicals, Inc; Cat #152401). In some samples, 20 ng/ml Wnt3a (R&D Systems; Cat #1324-WN/CF) was also included. On the second day of assay, 100 ng/mlactivin A or 100 ng/ml GDF-8 was diluted into RPMI-1640 medium supplemented with 2% FAF BSA, omitting Wnt3a from all samples. In some test samples using GDF-8, Wnt3a was replaced with a given concentration of small molecule compound, added only on the first day of definitive endoderm differentiation. […] At the conclusion of the first step of differentiation, cells from some wells were harvested for flow cytometry analysis to evaluate levels of CXCR4, a marker of definitive endoderm formation. Additional wells were harvested for RT-PCR analysis to measure other markers of differentiation.
At the conclusion of the first step of definitive endoderm differentiation, replicate sets of parallel wells from each treatment group were subjected to further step-wise differentiation. It is important to note that after the first differentiation step, all wells undergoing subsequent culture and differentiation received the same treatment. The protocol for this continuing differentiation is described below.
Step 2 of the differentiation protocol was carried out over two days. Cells were fed daily by aspirating the medium from each well and replacing with a fresh aliquot (0.5 ml) of DMEM:F12 medium (Invitrogen; Cat #11330-032) containing 2% FAF BSA, 50 ng/ml FGF7 (PeproTech; Cat #100-19), and 250 nM cyclopamine-KAAD (Calbiochem; Cat #239804).
Step 3 of the differentiation protocol was carried out over four days. […]

[1] = Step 5, cells harvested at end of step, treatment given during step one

Substance: Activin A: recombinant human activin A (PeproTech), TGF-beta family member
- RT-PCR CT Values AFP (Step 1): 32.8
- RT-PCR CT Values CD9 (Step 1): 25.2
- RT-PCR CT Values CD99 (Step 1): 24.0
- RT-PCR CT Values CDH (Step 1): 21.8
- RT-PCR CT Values CDH1 (Step 1): 26.1
- RT-PCR CT Values CDX2 (Step 1): 36.0
- RT-PCR CT Values CER1 (Step 1): 18.3
- RT-PCR CT Values CXCR4 (Step 1): 20.4
- RT-PCR CT Values FGF4 (Step 1): 34.0
- RT-PCR CT Values FGF17 (Step 1): 20.7
- RT-PCR CT Values FOXA2 (Step 1): 25.1
- RT-PCR CT Values GAPDH (Step 1): 19.4
- RT-PCR CT Values GATA4 (Step 1): 25.0
- RT-PCR CT Values GATA6 (Step 1): 22.9
- RT-PCR CT Values GSC (Step 1): 22.4
- RT-PCR CT Values HLXB9 (Step 1): 24.8
- RT-PCR CT Values KIT (Step 1): 22.7
- RT-PCR CT Values MIXL1 (Step 1): 28.9
- RT-PCR CT Values NANOG (Step 1): 24.1
- RT-PCR CT Values OTX2 (Step 1): 22.5
- RT-PCR CT Values POU5F1 (Step 1): 32.2
- RT-PCR CT Values SOX7 (Step 1): 32.3
- RT-PCR CT Values SOX17 (Step 1): 21.6
- RT-PCR CT Values T (Step 1): 36.1
- RT-PCR CT Values ALB (Step 3): 26.9
- RT-PCR CT Values AMY2A (Step 3): 30.6
- RT-PCR CT Values ARX (Step 3): 32.0
- RT-PCR CT Values CDX2 (Step 3): 22.9
- RT-PCR CT Values GAPDH (Step 3): 18.5
- RT-PCR CT Values GCG (Step 3): 34.1
- RT-PCR CT Values HNF4A (Step 3): 22.4
- RT-PCR CT Values INS (Step 3): 34.8
- RT-PCR CT Values ISL1 (Step 3): 29.3
- RT-PCR CT Values MAFA (Step 3): 36.4
- RT-PCR CT Values MAFB (Step 3): 27.4
- RT-PCR CT Values NEUROD1 (Step 3): 30.1
- RT-PCR CT Values NEUROG3 (Step 3): 28.0
- RT-PCR CT Values NKX2-2 (Step 3): 29.3
- RT-PCR CT Values NKX2-5 (Step 3): 34.6
- RT-PCR CT Values NKX6-1 (Step 3): 32.2
- RT-PCR CT Values PAX4 (Step 3): 31.4
- RT-PCR CT Values PAX6 (Step 3): 40.0
- RT-PCR CT Values PDX1 (Step 3): 23.3
- RT-PCR CT Values PECAM (Step 3): 31.0
- RT-PCR CT Values POU3F4 (Step 3): 30.5
- RT-PCR CT Values PTF1A (Step 3): 34.6
- RT-PCR CT Values SST (Step 3): 33.2
- RT-PCR CT Values ZIC1 (Step 3): 34.8
- RT-PCR CT Values ALB (Step 4): 22.4
- RT-PCR CT Values AMY2A (Step 4): 28.6
- RT-PCR CT Values ARX (Step 4): 23.9
- RT-PCR CT Values CDX2 (Step 4): 23.7
- RT-PCR CT Values GAPDH (Step 4): 19.0
- RT-PCR CT Values GCG (Step 4): 22.8
- RT-PCR CT Values HNF4A (Step 4): 22.1
- RT-PCR CT Values INS (Step 4): 23.6
- RT-PCR CT Values ISL1 (Step 4): 24.1
- RT-PCR CT Values MAFA (Step 4): 30.6
- RT-PCR CT Values MAFB (Step 4): 23.5
- RT-PCR CT Values NEUROD1 (Step 4): 23.7
- RT-PCR CT Values NEUROG3 (Step 4): 23.3
- RT-PCR CT Values NKX2-2 (Step 4): 24.0
- RT-PCR CT Values NKX2-5 (Step 4): 31.9
- RT-PCR CT Values NKX6-1 (Step 4): 27.4
- RT-PCR CT Values PAX4 (Step 4): 25.7
- RT-PCR CT Values PAX6 (Step 4): 27.1
- RT-PCR CT Values PDX1 (Step 4): 23.7
- RT-PCR CT Values PECAM (Step 4): 29.8
- RT-PCR CT Values POU3F4 (Step 4): 26.5
- RT-PCR CT Values PTF1A (Step 4): 29.6
- RT-PCR CT Values SST (Step 4): 24.3
- RT-PCR CT Values ZIC1 (Step 4): 32.5
- RT-PCR CT Values ALB (Step 5): 20.2
- RT-PCR CT Values AMY2A (Step 5): 27.6
- RT-PCR CT Values ARX (Step 5): 22.0
- RT-PCR CT Values CDX2 (Step 5): 23.4
- RT-PCR CT Values GAPDH (Step 5): 18.3
- RT-PCR CT Values GCG (Step 5): 14.1
- RT-PCR CT Values HNF4A (Step 5): 21.3
- RT-PCR CT Values INS (Step 5): 14.9
- RT-PCR CT Values ISL1 (Step 5): 22.4
- RT-PCR CT Values MAFA (Step 5): 31.8
- RT-PCR CT Values MAFB (Step 5): 22.2
- RT-PCR CT Values NEUROD1 (Step 5): 22.8
- RT-PCR CT Values NEUROG3 (Step 5): 28.1
- RT-PCR CT Values NKX2-2 [1]: 23.7 CT
- RT-PCR CT Values NKX2-5 [1]: 34.1 CT
- RT-PCR CT Values NKX6-1 [1]: 25.5 CT
- RT-PCR CT Values PAX4 [1]: 27.3 CT
- RT-PCR CT Values PAX6 [1]: 24.0 CT
- RT-PCR CT Values PDX1 [1]: 23.2 CT
- RT-PCR CT Values PECAM [1]: 30.1 CT
- RT-PCR CT Values POU3F4 [1]: 28.8 CT
- RT-PCR CT Values PTF1A [1]: 27.3 CT
- RT-PCR CT Values SST [1]: 19.6 CT
- RT-PCR CT Values ZIC1 [1]: 34.4 CT
